Patent US20030050306A1, “Novel heteroaryl derivatives, their preparation and use” (H. Lundbeck A/S, priority 1999, published 2003)
Counter-ions that a name gives are not always drawn.

Columns and labels:
[1] = molecular target: T1, human cloned dopamine D4.2 receptors (Homo sapiens, UniProt P21917, DEL265-296); assay: Inhibition of the binding of 3H-YM-09151-2 to human dopamine D4 receptors; details: human cloned dopamine D4.2 receptors in CHO-cells
T1 construct: expressed in transfected cells; host or cells: CHO cells
T1 sequence (P21917 with tags, fused parts or gaps DEL265-296): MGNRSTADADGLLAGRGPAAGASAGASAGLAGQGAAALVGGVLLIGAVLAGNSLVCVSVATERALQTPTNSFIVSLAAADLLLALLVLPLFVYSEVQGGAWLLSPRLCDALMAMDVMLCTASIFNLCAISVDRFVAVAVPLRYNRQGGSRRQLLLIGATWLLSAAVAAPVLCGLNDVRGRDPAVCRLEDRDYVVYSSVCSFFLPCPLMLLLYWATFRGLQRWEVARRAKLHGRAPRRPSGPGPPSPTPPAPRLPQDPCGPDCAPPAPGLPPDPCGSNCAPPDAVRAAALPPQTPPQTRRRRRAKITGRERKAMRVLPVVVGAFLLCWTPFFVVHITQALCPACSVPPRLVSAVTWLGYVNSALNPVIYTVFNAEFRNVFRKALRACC
Method in brief: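 Radioligand displacement of [3H]YM-09151-2 (0.06 nM) from membranes of CHO cells expressing cloned human D4.2 receptors, measured in vitro.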

[2] = molecular target: T2, cloned human 5-HT1A receptors (Homo sapiens, UniProt P08908); assay: Inhibition of 3H-5-CT binding to human 5-HT1A receptors; details: cloned human 5-HT1A receptors in HeLa cells (HA7)
T2 construct: expressed in transfected cells; host or cells: HeLa cells (HA7)
T2 sequence (P08908 1-422): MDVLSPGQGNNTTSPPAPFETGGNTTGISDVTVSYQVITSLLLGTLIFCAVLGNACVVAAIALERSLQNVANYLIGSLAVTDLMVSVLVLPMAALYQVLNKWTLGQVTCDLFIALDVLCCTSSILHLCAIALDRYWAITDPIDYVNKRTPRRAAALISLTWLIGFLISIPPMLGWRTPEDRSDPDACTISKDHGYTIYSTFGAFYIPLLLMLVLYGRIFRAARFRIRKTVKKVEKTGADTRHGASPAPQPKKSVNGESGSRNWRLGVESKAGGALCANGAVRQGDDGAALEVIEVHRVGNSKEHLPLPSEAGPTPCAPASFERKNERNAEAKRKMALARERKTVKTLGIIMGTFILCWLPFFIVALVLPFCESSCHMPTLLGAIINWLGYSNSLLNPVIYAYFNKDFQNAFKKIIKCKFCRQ
Method in brief: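 Cloned human 5-HT1A receptors stably expressed in transfected HeLa cells (HA7); 40 μg cell homogenate incubated 15 min at 37° C in 50 mM Tris pH 7.7 with 3H-5-CT. Non-specific binding defined with 10 μM metergoline; bound radioligand separated by rapid GF/B filtration and counted.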

Row | Compound | melting point [°C] | inhibition at 0.1 µM ([2]; at 100 nM) [%] | inhibition at 0.05 µM ([1]; at 50 nM) [%] | further results
1 | Cc1cc(F)ccc1OCCCN1CCN(c2cccc3c2OCCO3)CC1 (as salt: oxalate) [Compound 1e, 1-(2,3-Dihydro-benzo[1,4]dioxin-5-yl)-4-[3-(4-fluoro-2-methyl-phenoxy)-propyl]-piperazine] | 139 to 150 |  |  | 
2 | Clc1cccc(Cl)c1OCCCN1CCN(c2cccc3c2OCCO3)CC1 (as salt: oxalate) [Compound 1b, 1-[3-(2,6-Dichloro-phenoxy)-propyl]-4-(2,3-dihydro-benzo[1,4]dioxin-5-yl)-piperazine] | 179 to 181 |  |  | 
3 | COc1cc(F)ccc1OCCCN1CCN(c2cccc3c2OCCO3)CC1 (as salt: oxalate) [Compound 1d, 1-(2,3-Dihydro-benzo[1,4]dioxin-5-yl)-4-[3-(4-fluoro-2-methoxy-phenoxy)-propyl]-piperazine] | 141 to 142 |  |  | 
4 | Fc1cc(F)c(OCCCN2CCN(c3cccc4c3OCCO4)CC2)c(F)c1 (as salt: hydrochloride) [Compound 1c, 1-(2,3-Dihydro-benzo[1,4]dioxin-5-yl)-4-[3-(2,4,6-trifluoro-phenoxy)-propyl]-piperazine] | 210 to 220 |  |  | 
5 | FC(F)(F)c1ccc(OCCCN2CCN(c3cccc4c3OCCO4)CC2)cc1 (as salt: oxalate) [Compound 2b, 1-(2,3-Dihydro-benzo[1,4]dioxin-5-yl)-4-[3-(4-trifluoromethyl-phenoxy)-propyl]-piperazine] | 148 to 150 |  |  | 
6 | Fc1ccccc1OCCCN1CCN(c2cccc3c2OCCO3)CC1 (as salt: oxalate) [Compound 2c, 1-(2,3-Dihydro-benzo[1,4]dioxin-5-yl)-4-[3-(2-fluoro-phenoxy)-propyl]-piperazine] | 167 to 169 |  |  | 
7 | Clc1ccc(OCCCN2CCN(c3cccc4c3OCCO4)CC2)cc1 [Compound 2a, 1-[3-(4-Chloro-phenoxy)-propyl]-4-(2,3-dihydro-benzo[1,4]dioxin-5-yl)-piperazine] |  |  |  | IC50 [1]: 4 nM; IC50 [2]: 4.4 nM
8 | Fc1ccccc1OCCCN1CCN(c2cccc3c2OCCO3)CC1 [Compound 2c, 1-(2,3-Dihydro-benzo[1,4]dioxin-5-yl)-4-[3-(2-fluoro-phenoxy)-propyl]-piperazine] |  |  |  | IC50 [1]: 1.2 nM; IC50 [2]: 4 nM
9 | Fc1cc(Br)cc(F)c1OCCCN1CCN(c2cccc3c2OCCO3)CC1 [Compound 5cg, 1-[3-(4-Bromo-2,6-difluoro-phenoxy)-propyl]-4-(2,3-dihydro-benzo[1,4]dioxin-5-yl)-piperazine] |  |  |  | IC50 [1]: 12 nM; IC50 [2]: 1.7 nM
10 | 1-[3-(Bromo-trifluoromethyl-phenylsulfanyl)-propyl]-4-(2,3-dihydro-benzo[1,4]dioxin-5-yl)-piperazine [Compound 5ap] |  |  |  | IC50 [1]: 6.3 nM; IC50 [2]: 6.2 nM
11 | N#Cc1ccccc1OCCCN1CCN(c2cccc3c2OCCO3)CC1 [Compound 2d, 2-{3-[4-(2,3-Dihydro-benzo[1,4]dioxin-5-yl)-piperazin-1-yl]-propoxy}-benzonitrile] |  |  |  | IC50 [1]: 1.7 nM; IC50 [2]: 15 nM
12 | Cc1cc(F)ccc1OCCCN1CCN(c2cccc3c2OCCO3)CC1 [Compound 1e, 1-(2,3-Dihydro-benzo[1,4]dioxin-5-yl)-4-[3-(4-fluoro-2-methyl-phenoxy)-propyl]-piperazine] |  |  |  | IC50 [1]: 1.3 nM; IC50 [2]: 4.5 nM
13 | Clc1ccc(SCCN2CCN(c3cccc4c3OCCO4)CC2)c(Cl)c1 [Compound 7ap, 1-[2-(2,4-Dichloro-phenylsulfanyl)-ethyl]-4-(2,3-dihydro-henzo[1,4]dioxin-5-yl)-piperazine] |  |  |  | Inhibition of 3H-YM-09151-2 binding % inhibition at 50 nM ([1]; at 50 nM): 78%; Inhibition of 3H-5-CT Binding % inhibition at 100 nM ([2]; at 100 nM): 91%
14 | COc1cc(F)ccc1OCCCN1CCN(c2cccc3c2OCCO3)CC1 [Compound 1d, 1-(2,3-Dihydro-benzo[1,4]dioxin-5-yl)-4-[3-(4-fluoro-2-methoxy-phenoxy)-propyl]-piperazine] |  |  |  | IC50 [1]: 3 nM; IC50 [2]: 5.3 nM

Second part, led by results:

Row | melting point [°C] | inhibition at 0.1 µM ([2]; at 100 nM) [%] | inhibition at 0.05 µM ([1]; at 50 nM) [%] | Compound | further results
15 | 96 to 98 |  |  | N#Cc1ccc(N2CCN(CCCOc3ccccc3Cl)CC2)c2c1OCCO2 (as salt: oxalate) [Compound 6c, 8-{4-[3-(2-Chloro-phenoxy)-propyl]-piperazin-1-yl}-2,3-dihydro-benzo[1,4]dioxine-5-carbonitrile] | 
16 | 193 to 195 |  |  | Fc1ccc(OCCCCN2CCN(c3cccc4ccsc34)CC2)c(Cl)c1 (as salt: hydrochloride) [Compound 2f, 1-Benzo[b]thiophen-7-yl-4-[4-(2-chloro-4-fluoro-phenoxy)-butyl]-piperazine] | 
17 | 216 to 219 |  |  | Fc1ccc(SCCCN2CCN(c3cccc4ccsc34)CC2)c(Cl)c1 (as salt: hydrochloride) [Compound 2e, 1-Benzo[b]thiophen-7-yl-4-[3-(2-chloro-4-fluoro-phenylsulfanyl)-propyl]-piperazine] | 
18 | 200 to 202 |  |  | Fc1ccc(SCCN2CCN(c3cccc4c3OCCO4)CC2)cc1 (as salt: oxalate) [Compound 3b, 1-(2,3-Dihydro-benzo[1,4]dioxin-5-yl)-4-[2-(4-fluoro-phenylsulfanyl)-ethyl]-piperazine] | 
19 |  | 14 |  | Cc1cccc(Cl)c1SCCCCN1CCN(c2cc(Cl)cc3c2OCC3(C)C)CC1 [Compound 5ay, 1-(5-Chloro-3,3-dimethyl-2,3-dihydro-benzofuran-7-yl)-4-[4-(2-chloro-6-methyl-phenylsulfanyl)-butyl]-piperazine] | IC50 [1]: 12 nM
20 |  | 92 | 99 | C=CCc1ccccc1OCCCCN1CCN(c2cccc3c2OCCO3)CC1 [Compound 7bp, 1-[4-(2-Allyl-phenoxy)-butyl]-4-(2,3-dihydro-benzo[1,4]dioxin-5-yl)-piperazine] | 
21 |  | 90 | 82 | C=CCc1cccc(Cl)c1OCCN1CCN(c2cccc3c2OCCO3)CC1 [Compound 7ai, 1-[2-(2-Allyl-6-chloro-phenoxy)-ethyl]-4-(2,3-dihydro-benzo[1,4]dioxin-5-yl)-piperazine] | 
22 |  | 102 | 102 | Clc1ccccc1SCCCCN1CCN(c2cccc3c2OCCO3)CC1 [Compound 7be, 1-[4-(2-Chloro-phenylsulfanyl)-butyl]-4-(2,3-dihydro-benzo[1,4]dioxin-5-yl)-piperazine] | 
23 |  | 81 | 64 | COc1ccc(SCCN2CCN(c3cccc4c3OCCO4)CC2)cc1OC [Compound 7bg, 1-(2,3-Dihydro-benzo[1,4]dioxin-5-yl)-4-[2-(3,4-dimethoxy-phenylsulfanyl)-ethyl]-piperazine] | 
24 |  | 93 | 98 | FC(F)(F)c1ccccc1SCCCN1CCN(c2cccc3c2OCCO3)CC1 [Compound 7ak, 1-(2,3-Dihydro-benzo[1,4]dioxin-5-yl)-4-[3-(2-trifluoromethyl-phenylsulfanyl)-propyl]-piperazine] | 
25 |  |  | 100 | CCc1ccccc1SCCCN1CCN(c2cccc3c2OCCO3)CC1 [Compound 7ax, 1-(2,3-Dihydro-benzo[1,4]dioxin-5-yl)-4-[3-(2-ethyl-phenylsulfanyl)-propyl]-piperazine] | IC50 [2]: 9.2 nM
26 |  | 83 | 42 | N#Cc1ccc(N2CCN(CCCOc3c(Cl)cccc3Cl)CC2)c2c1OCCO2 [Compound 5cl, 8-{4-[3-(2,6-Dichloro-phenoxy)-propyl]-piperazin-1-yl}-2,3-dihydro-benzo[1,4]dioxine-5-carbonitrile] | 
27 |  | 101 | 91 | Fc1ccccc1SCCCCN1CCN(c2cccc3c2OCCO3)CC1 [Compound 7bf, 1-(2,3-Dihydro-benzo[1,4]dioxin-5-yl)-4-[4-(2-fluoro-phenylsulfanyl)-butyl]-piperazine] | 
28 |  | 100 | 92 | Clc1cccc(SCCCN2CCN(c3cccc4c3OCCO4)CC2)c1 [Compound 7az, 1-[3-(3-Chloro-phenylsulfanyl)-propyl]-4-(2,3-dihydro-benzo[1,4]dioxin-5-yl)-piperazine] | 
29 |  | 82 | 75 | FC(F)(F)c1ccccc1OCCN1CCN(c2cccc3c2OCCO3)CC1 [Compound 7ae, 1-(2,3-Dihydro-benzo[1,4]dioxin-5-yl)-4-[2-(2-trifluoromethyl-phenoxy)-ethyl]-piperazine] | 
